Source: ChEMBL document CHEMBL1201862, “PubChem BioAssay data set” (2004)
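The compound was tested at five concentrations on cells cultured in 96-well plates, with a 48-hour exposure period. GI50: concentration for 50% inhibition of growth.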 Activity calls are given as the source filed them. No stated cut-off is given here; in the data, active = GI50 up to about 1.1 µM and inactive = higher.

Experiments:
Assay in all cases: DTP human tumour cell line panel, 48 h
A498 = system: A498
A549 = system: A549
CCRF-CEM = system: CCRF-CEM
EKVX = system: EKVX
HOP-62 = system: HOP-62
HOP-92 = system: HOP-92
HT-29 = system: HT-29
MOLT-4 = system: MOLT-4
Malme-3M = system: Malme-3M
NCI-H460 = system: NCI-H460
OVCAR-4 = system: OVCAR-4
SF-268 = system: SF-268
SK-MEL-5 = system: SK-MEL-5
SK-OV-3 = system: SK-OV-3
SN12C = system: SN12C
SNB-19 = system: SNB-19
SNB-75 = system: SNB-75
U-251 = system: U-251
HL-60 = system: HL-60

Compound	GI50 (A498)	GI50 (A549)	GI50 (CCRF-CEM)	GI50 (EKVX)	GI50 (HOP-62)	GI50 (HOP-92)	GI50 (HT-29)	GI50 (MOLT-4)	GI50 (Malme-3M)	GI50 (NCI-H460)	GI50 (OVCAR-4)	GI50 (SF-268)	GI50 (SK-MEL-5)	GI50 (SK-OV-3)	GI50 (SN12C)	GI50 (SNB-19)	GI50 (SNB-75)	GI50 (U-251)	GI50 (HL-60)
COc1ccc2c(c1)[n+]([O-])c(C(=O)C/C(=N/NC(=O)c1ccccc1O)C(=O)Nc1ccc(Cl)c(C(F)(F)F)c1)c(C)[n+]2[O-]	53.8 µM (inactive)	> 100 µM (inactive)	36.4 µM (inactive)	48.9 µM (inactive)	37.8 µM (inactive)	> 100 µM (inactive)	> 100 µM (inactive)	37.3 µM (inactive)	49.7 µM (inactive)	46.5 µM (inactive)	87.9 µM (inactive)	54.8 µM (inactive)	45.8 µM (inactive)	> 100 µM (inactive)	47.2 µM (inactive)	> 100 µM (inactive)	66.5 µM (inactive)	> 100 µM (inactive)	
CC(C)(C)c1ccc(-c2nnc(-c3cc(C#N)cc(-c4nnc(-c5ccc(C(C)(C)C)cc5)o4)c3)o2)cc1	> 100 µM (inactive)	> 100 µM (inactive)	> 100 µM (inactive)	> 100 µM (inactive)	60.1 µM (inactive)	> 100 µM (inactive)	> 100 µM (inactive)	> 100 µM (inactive)	> 100 µM (inactive)	> 100 µM (inactive)	> 100 µM (inactive)	> 100 µM (inactive)	> 100 µM (inactive)	> 100 µM (inactive)	> 100 µM (inactive)	> 100 µM (inactive)	88.9 µM (inactive)	> 100 µM (inactive)	
CC(C)(C)[Si](Nc1ccccc1)(c1ccccc1)c1ccccc1	17.3 µM (inactive)	13 µM (inactive)	16 µM (inactive)	16 µM (inactive)	16.8 µM (inactive)	13.9 µM (inactive)	14.7 µM (inactive)	10.1 µM (inactive)	22.1 µM (inactive)	18.4 µM (inactive)	13.9 µM (inactive)	13.5 µM (inactive)	17.5 µM (inactive)	17.1 µM (inactive)	15 µM (inactive)	14.1 µM (inactive)	12.1 µM (inactive)	13.8 µM (inactive)	13.6 µM (inactive)
N#CC(c1nc2ccccc2s1)c1nc(Cl)ncc1Br (stereo not given)	> 100 µM (inactive)	46.5 µM (inactive)		41.8 µM (inactive)	34.2 µM (inactive)	18.2 µM (inactive)	46.5 µM (inactive)	72.4 µM (inactive)	41.4 µM (inactive)	46 µM (inactive)	47.8 µM (inactive)	34 µM (inactive)	19 µM (inactive)	36.1 µM (inactive)	30.6 µM (inactive)	40.6 µM (inactive)	23.2 µM (inactive)	29.4 µM (inactive)	
Cc1ccccc1NC(=O)C(=O)CC(=O)C1CCOC1=O (stereo not given)	> 100 µM (inactive)	> 100 µM (inactive)	> 100 µM (inactive)	> 100 µM (inactive)	> 100 µM (inactive)	> 100 µM (inactive)	> 10 µM (inactive)		> 100 µM (inactive)	> 100 µM (inactive)	> 100 µM (inactive)	> 100 µM (inactive)	> 100 µM (inactive)	> 100 µM (inactive)	> 100 µM (inactive)	> 100 µM (inactive)	> 100 µM (inactive)	> 100 µM (inactive)	> 100 µM (inactive)
CC1CC(=O)Nc2ccccc2N1C(=O)C1CC1 (stereo not given)	> 100 µM (inactive)	> 100 µM (inactive)	> 100 µM (inactive)	> 100 µM (inactive)	> 100 µM (inactive)	19.5 µM (inactive)	> 100 µM (inactive)	> 100 µM (inactive)	> 100 µM (inactive)	> 100 µM (inactive)	> 100 µM (inactive)	> 100 µM (inactive)	> 100 µM (inactive)	> 100 µM (inactive)	> 100 µM (inactive)	> 100 µM (inactive)		> 100 µM (inactive)	> 100 µM (inactive)
CCOC(=O)C(=O)CC(=O)C(Br)C(Br)c1ccc(Cl)cc1 (stereo not given)		> 100 µM (inactive)	8.36 µM (inactive)	> 100 µM (inactive)	> 100 µM (inactive)	24.6 µM (inactive)	18.6 µM (inactive)	21.7 µM (inactive)	31.8 µM (inactive)	> 100 µM (inactive)	65.9 µM (inactive)	34.1 µM (inactive)	57.4 µM (inactive)	> 100 µM (inactive)	30.3 µM (inactive)	26.4 µM (inactive)	> 100 µM (inactive)		17.2 µM (inactive)
CC1=C(C(=O)CC(=O)C(=O)Nc2ccc(Cl)cc2C)Sc2ccccc2N1	> 100 µM (inactive)	> 100 µM (inactive)	> 100 µM (inactive)	> 100 µM (inactive)	> 100 µM (inactive)	22.8 µM (inactive)	> 100 µM (inactive)	> 59.6 µM (inactive)	> 100 µM (inactive)	> 100 µM (inactive)	> 100 µM (inactive)	> 100 µM (inactive)	> 100 µM (inactive)	> 100 µM (inactive)	> 100 µM (inactive)	> 100 µM (inactive)	> 100 µM (inactive)	> 100 µM (inactive)	> 100 µM (inactive)
N=C(N)NS(=O)(=O)c1ccc(NC(=O)c2cccc3c(Nc4ccc(S(=O)(=O)N=C(N)N)cc4)c4ccccc4nc23)cc1	47.4 µM (inactive)	79.1 µM (inactive)	43.9 µM (inactive)	71 µM (inactive)	> 100 µM (inactive)	> 100 µM (inactive)	42.1 µM (inactive)	35.7 µM (inactive)	> 100 µM (inactive)	> 100 µM (inactive)	26.6 µM (inactive)	62.5 µM (inactive)	22.2 µM (inactive)	72.6 µM (inactive)	> 100 µM (inactive)	> 100 µM (inactive)	6.05 µM (inactive)	28.8 µM (inactive)	27 µM (inactive)
COC(=O)c1nc(NN)cc(O)c1CCCCCc1c(O)nc(NN)nc1C(=O)OC	> 100 µM (inactive)	> 100 µM (inactive)	> 100 µM (inactive)	> 100 µM (inactive)	> 100 µM (inactive)	> 100 µM (inactive)	> 100 µM (inactive)	> 100 µM (inactive)	> 100 µM (inactive)	> 100 µM (inactive)	> 100 µM (inactive)	> 100 µM (inactive)	> 100 µM (inactive)	> 100 µM (inactive)	> 100 µM (inactive)	> 100 µM (inactive)	> 100 µM (inactive)	> 100 µM (inactive)	> 100 µM (inactive)
CCOC(=O)/C(=C\c1ccc(N(CCC#N)CCC#N)cc1C)NC(=O)/C=C/c1ccccc1	> 100 µM (inactive)	> 100 µM (inactive)	> 100 µM (inactive)	> 100 µM (inactive)	> 100 µM (inactive)		> 100 µM (inactive)	> 100 µM (inactive)	> 100 µM (inactive)	> 100 µM (inactive)		> 100 µM (inactive)	> 100 µM (inactive)	> 100 µM (inactive)	> 100 µM (inactive)	> 100 µM (inactive)	> 100 µM (inactive)	> 100 µM (inactive)	> 100 µM (inactive)
CCCCCOc1ccc(/C=N\c2ccc(CCc3ccc(/N=C/c4ccc(OCCCCC)cc4)cc3)cc2)cc1	> 100 µM (inactive)	> 100 µM (inactive)	> 100 µM (inactive)	> 100 µM (inactive)	> 100 µM (inactive)	> 100 µM (inactive)	> 100 µM (inactive)	> 100 µM (inactive)	> 100 µM (inactive)	> 100 µM (inactive)	> 100 µM (inactive)	> 100 µM (inactive)	> 100 µM (inactive)	> 100 µM (inactive)	> 100 µM (inactive)	> 100 µM (inactive)	> 100 µM (inactive)	> 100 µM (inactive)	> 100 µM (inactive)
Cc1ccc(C)n1-c1ccccc1C1C=CN(C(=O)OC(C)(C)C)C=C1	50.5 µM (inactive)	31.1 µM (inactive)	35.3 µM (inactive)	16.4 µM (inactive)	31.4 µM (inactive)	37.6 µM (inactive)	12.1 µM (inactive)	21.7 µM (inactive)	15.7 µM (inactive)	28.2 µM (inactive)	71.4 µM (inactive)	33.6 µM (inactive)	33.4 µM (inactive)	> 100 µM (inactive)	33.6 µM (inactive)	47.6 µM (inactive)	13.5 µM (inactive)	26.3 µM (inactive)	32.7 µM (inactive)
Cc1c(Cl)c(S(N)(=O)=O)cc2c1N=CNS2(=O)=O	> 100 µM (inactive)	> 100 µM (inactive)	> 100 µM (inactive)	0.507 µM (active)	> 100 µM (inactive)	> 100 µM (inactive)	> 100 µM (inactive)	> 100 µM (inactive)	> 100 µM (inactive)	> 100 µM (inactive)	> 100 µM (inactive)	> 100 µM (inactive)	> 100 µM (inactive)	> 100 µM (inactive)	> 100 µM (inactive)	> 100 µM (inactive)	> 100 µM (inactive)	> 100 µM (inactive)	
CCOC(=O)COc1ccc(OC)c2c1C(=O)CCC2	> 100 µM (inactive)	> 100 µM (inactive)	> 100 µM (inactive)	> 100 µM (inactive)			> 100 µM (inactive)	> 100 µM (inactive)		> 100 µM (inactive)	> 100 µM (inactive)		> 100 µM (inactive)	> 100 µM (inactive)	> 100 µM (inactive)	20 µM (inactive)	> 100 µM (inactive)	> 100 µM (inactive)	> 100 µM (inactive)
